# Data published in US10059694B2, “2-aminopyrimidine compound and pharmaceutical composition and use thereof” (Shanghai Institute of Materia Medica, Chinese Academy of …, priority 2014, dated 2018).
# How the values were obtained:
# EGFR^wt = biological target: T1, EGFR^wt (Homo sapiens, UniProt P00533); assay: kinase inhibitory activity test (ELISA), EGFR^WT; type: biochemical; conditions: ATP 5 μM, 1 hour at 37° C.
# T1 construct: purchased Millipore
# How it was run: (§1)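 ELISA on poly(Glu,Tyr)4:1-coated plates; kinase reaction with 5 μM ATP (final) in 50 mM HEPES pH 7.4, 50 mM MgCl2, 5 mM MnCl2, 0.2 mM Na3VO4, 1 mM DTT, 1 h at 37° C. Phosphotyrosine detected via PY99/HRP and OPD at 490 nm; IC50 by four-parameter fit.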
# EGFR^T790M/L858R = biological target: T2, EGFR^T790M/L858R (Homo sapiens, UniProt P00533, L858R/T790M); assay: kinase inhibitory activity test (ELISA), EGFR^T790M/L858R; type: biochemical; conditions: ELISA, ATP 5 μM, 1 hour at 37° C.
# T2 construct: purchased Millipore
# T2 sequence (P00533 25-1210 T790M/L858R): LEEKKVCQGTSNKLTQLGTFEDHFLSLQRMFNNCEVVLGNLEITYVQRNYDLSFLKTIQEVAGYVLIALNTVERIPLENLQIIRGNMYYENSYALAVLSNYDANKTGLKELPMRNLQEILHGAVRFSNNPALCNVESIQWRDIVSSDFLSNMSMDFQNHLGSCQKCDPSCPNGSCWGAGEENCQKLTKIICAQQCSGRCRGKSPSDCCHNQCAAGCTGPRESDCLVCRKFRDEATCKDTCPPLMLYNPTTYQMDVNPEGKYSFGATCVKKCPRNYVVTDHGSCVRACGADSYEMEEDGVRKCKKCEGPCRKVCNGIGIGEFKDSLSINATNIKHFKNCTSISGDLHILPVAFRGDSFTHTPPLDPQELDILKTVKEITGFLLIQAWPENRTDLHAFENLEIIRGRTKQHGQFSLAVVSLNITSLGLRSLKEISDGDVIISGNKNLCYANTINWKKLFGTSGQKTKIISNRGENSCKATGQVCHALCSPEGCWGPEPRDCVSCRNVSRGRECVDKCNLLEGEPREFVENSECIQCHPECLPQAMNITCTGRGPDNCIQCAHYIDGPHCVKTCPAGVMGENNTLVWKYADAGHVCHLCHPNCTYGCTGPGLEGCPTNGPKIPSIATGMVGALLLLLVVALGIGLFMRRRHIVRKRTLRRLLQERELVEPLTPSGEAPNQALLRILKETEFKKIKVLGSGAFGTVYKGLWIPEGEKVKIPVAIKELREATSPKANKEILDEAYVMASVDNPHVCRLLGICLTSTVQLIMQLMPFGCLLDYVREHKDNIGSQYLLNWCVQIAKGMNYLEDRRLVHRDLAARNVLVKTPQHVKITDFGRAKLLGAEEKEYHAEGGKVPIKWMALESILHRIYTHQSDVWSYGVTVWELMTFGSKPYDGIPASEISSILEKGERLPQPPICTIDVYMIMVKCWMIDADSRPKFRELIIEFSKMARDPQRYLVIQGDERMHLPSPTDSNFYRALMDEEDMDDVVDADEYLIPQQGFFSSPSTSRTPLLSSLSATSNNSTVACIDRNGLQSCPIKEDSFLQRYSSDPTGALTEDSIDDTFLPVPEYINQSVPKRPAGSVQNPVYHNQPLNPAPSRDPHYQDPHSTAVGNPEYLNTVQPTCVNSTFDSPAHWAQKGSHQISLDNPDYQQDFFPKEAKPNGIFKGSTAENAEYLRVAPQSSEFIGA
# How it was run: as §1
# [1] = system: human epidermal carcinoma A431 cell line; assay: SRB proliferation assay, A431 cells; type: cell-based; conditions: A-431, SRB, 72 h, read-out: IC50 A431
# How it was run: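 A431 cells in log phase are allowed to adhere for 24 h, then exposed to compound for 72 h in triplicate alongside DMSO controls. Cells are fixed with cold 10% TCA, stained with SRB, dye is solubilised in 10 mM Tris pH 10.5, and OD is read at 515 nm.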
# [2] = system: human non-small cell lung cancer NCI-H1975 cell line; assay: SRB proliferation assay, NCI-H1975 cells; type: cell-based; conditions: NCI-H1975, SRB, 72 h, read-out: IC50 NCI-H1975
# How it was run: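 NCI-H1975 cells in log phase were allowed to adhere for 24 h, then treated with compound in triplicate for 72 h. Cells were TCA-fixed and SRB-stained, with OD read at 515 nm; IC50 derived from growth inhibition versus DMSO control.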
# IGF-1R = biological target: T3, IGF-1R (Homo sapiens, UniProt P08069); assay: kinase inhibitory activity test (ELISA), IGF-1R; type: biochemical; conditions: ATP 5 μM, 1 hour at 37° C.
# T3 construct: purchased Millipore
# T3 sequence (P08069 31-1367): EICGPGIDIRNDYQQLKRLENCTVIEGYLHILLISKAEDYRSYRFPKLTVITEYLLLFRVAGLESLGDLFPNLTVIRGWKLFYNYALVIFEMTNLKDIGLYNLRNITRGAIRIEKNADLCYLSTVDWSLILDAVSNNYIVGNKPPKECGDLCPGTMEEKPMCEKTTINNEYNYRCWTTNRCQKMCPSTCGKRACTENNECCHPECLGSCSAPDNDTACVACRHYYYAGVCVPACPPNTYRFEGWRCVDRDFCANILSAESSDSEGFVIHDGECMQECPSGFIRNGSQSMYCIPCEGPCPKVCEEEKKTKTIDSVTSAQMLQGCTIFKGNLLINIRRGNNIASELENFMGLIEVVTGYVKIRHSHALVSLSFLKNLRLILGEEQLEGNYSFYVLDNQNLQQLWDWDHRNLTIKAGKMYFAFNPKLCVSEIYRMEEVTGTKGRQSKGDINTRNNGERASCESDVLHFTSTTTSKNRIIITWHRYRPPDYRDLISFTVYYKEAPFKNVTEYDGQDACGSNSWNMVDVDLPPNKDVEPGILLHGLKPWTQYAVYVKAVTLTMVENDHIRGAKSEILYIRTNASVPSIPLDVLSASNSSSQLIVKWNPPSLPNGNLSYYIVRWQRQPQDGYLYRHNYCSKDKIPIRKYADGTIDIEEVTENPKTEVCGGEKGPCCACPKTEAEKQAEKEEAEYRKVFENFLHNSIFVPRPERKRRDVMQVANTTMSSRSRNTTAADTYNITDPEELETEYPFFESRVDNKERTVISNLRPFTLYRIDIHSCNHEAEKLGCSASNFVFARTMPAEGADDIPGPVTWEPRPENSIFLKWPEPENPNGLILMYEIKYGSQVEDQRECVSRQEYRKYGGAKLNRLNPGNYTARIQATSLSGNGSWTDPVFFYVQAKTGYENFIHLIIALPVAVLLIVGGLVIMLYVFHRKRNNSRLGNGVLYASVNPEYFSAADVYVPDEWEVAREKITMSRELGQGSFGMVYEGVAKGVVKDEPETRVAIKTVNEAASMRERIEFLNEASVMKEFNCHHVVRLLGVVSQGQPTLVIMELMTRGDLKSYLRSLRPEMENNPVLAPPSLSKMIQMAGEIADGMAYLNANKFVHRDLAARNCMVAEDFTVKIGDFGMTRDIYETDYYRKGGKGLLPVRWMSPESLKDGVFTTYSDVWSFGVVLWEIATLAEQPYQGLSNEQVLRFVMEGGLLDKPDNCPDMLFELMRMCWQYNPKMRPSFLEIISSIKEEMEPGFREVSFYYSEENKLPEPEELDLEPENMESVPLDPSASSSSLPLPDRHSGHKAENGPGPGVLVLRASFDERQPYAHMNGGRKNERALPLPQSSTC
# How it was run: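 Poly(Glu,Tyr)4:1-coated plates; kinase reacted 1 h at 37 °C with 5 μM ATP (final) in HEPES pH 7.4 buffer with Mg2+/Mn2+. Phosphotyrosine detected by PY99 and HRP anti-mouse IgG with OPD at 490 nm; IC50 from four-parameter fit.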
# T1 sequence (P00533 25-1210): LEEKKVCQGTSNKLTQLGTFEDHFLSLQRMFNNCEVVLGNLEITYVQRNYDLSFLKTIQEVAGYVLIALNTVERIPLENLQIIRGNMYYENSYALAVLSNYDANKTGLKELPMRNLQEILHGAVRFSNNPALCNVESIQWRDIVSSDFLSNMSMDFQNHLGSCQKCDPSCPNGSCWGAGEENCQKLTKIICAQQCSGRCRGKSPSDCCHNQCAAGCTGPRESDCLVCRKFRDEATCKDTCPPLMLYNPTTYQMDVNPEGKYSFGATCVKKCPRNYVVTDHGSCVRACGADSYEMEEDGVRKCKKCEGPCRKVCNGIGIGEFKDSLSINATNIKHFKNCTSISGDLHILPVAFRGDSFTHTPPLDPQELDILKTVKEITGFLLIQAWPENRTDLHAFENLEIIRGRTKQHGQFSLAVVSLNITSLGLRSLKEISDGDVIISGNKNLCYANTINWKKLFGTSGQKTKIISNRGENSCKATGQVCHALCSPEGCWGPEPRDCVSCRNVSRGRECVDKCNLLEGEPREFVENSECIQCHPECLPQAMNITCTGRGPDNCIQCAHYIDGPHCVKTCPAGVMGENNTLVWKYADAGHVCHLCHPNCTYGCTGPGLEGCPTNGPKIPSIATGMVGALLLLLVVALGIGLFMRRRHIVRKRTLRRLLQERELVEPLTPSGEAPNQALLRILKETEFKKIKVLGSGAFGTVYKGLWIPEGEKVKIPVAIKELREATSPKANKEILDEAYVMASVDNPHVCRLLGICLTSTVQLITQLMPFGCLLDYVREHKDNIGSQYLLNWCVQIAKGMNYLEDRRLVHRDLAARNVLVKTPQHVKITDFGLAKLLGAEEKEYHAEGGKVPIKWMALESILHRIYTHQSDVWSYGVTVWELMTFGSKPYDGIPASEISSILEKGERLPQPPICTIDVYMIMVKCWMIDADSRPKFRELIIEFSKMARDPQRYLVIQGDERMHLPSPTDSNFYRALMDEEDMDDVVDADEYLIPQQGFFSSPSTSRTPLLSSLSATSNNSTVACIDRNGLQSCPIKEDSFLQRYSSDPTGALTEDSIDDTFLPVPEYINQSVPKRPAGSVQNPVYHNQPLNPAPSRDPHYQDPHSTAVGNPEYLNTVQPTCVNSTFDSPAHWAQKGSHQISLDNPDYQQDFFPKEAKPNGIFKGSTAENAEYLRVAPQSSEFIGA
SMILES,IC50 (EGFR^wt),IC50 (EGFR^T790M/L858R),IC50 [1],IC50 [2],IC50 (IGF-1R)
"Cc1ccc(NC(=O)/C=C/CN(C)C)cc1Nc1ncc(Br)c(Nc2ccc3ccccc3c2)n1 [CCB145339, (E)-N-((3-((5-bromo-4-((naphthalen-2-yl)amino))pyrimidin-2-yl)amino)-4-methylphenyl)-4-(dimethylamino)-2-butenamide]",4480 nM,73.2 nM,2190 nM,959 nM,48.3 nM
Cc1ccc(NC(=O)/C=C/CN(C)C)cc1Nc1ncc(Cl)c(Nc2ccc3ccccc3c2)n1 [CCB145340],2220 nM,28.7 nM,1610 nM,864 nM,117 nM
"Cc1cc(NC(=O)/C=C/CN(C)C)cc(Nc2ncc(Br)c(Nc3ccc4ccccc4c3)n2)c1 [CCB145342, (E)-N-((3-((5-bromo-4-((naphthalen-2-yl)amino))pyrimidin-2-yl)amino)-5-methylphenyl)-4-(dimethylamino)-2-butenamide]",1880 nM,44.2 nM,942 nM,1260 nM,127 nM
"CCOc1ccc(NC(=O)/C=C/CN(C)C)cc1Nc1ncc(Cl)c(Nc2ccc3ccccc3c2)n1 [CCB145373, (E)-N-((3-((5-chloro-4-((naphthalen-2-yl)amino))pyrimidin-2-yl)amino)-4-ethoxyphenyl)-4-(dimethylamino)-2-butenamide]",1460 nM,25.6 nM,6260 nM,1180 nM,163 nM
"CCOc1ccc(NC(=O)/C=C/CN(C)C)cc1Nc1ncc(Br)c(Nc2ccc3ccccc3c2)n1 [CCB145374, (E)-N-((3-((5-bromo-4-((naphthalen-2-yl)amino))pyrimidin-2-yl)amino)-4-ethoxyphenyl)-4-(dimethylamino)-2-butenamide]",2830 nM,11.3 nM,4470 nM,2820 nM,86.4 nM
"COc1cc(F)c(NC(=O)/C=C/CN(C)C)cc1Nc1ncc(Br)c(Nc2ccc3ccccc3c2)n1 [CCB145381, (E)-N-((5-((5-bromo-4-((naphthalen-2-yl)amino))pyrimidin-2-yl)amino)-2-fluoro-4-methoxyphenyl)-4-(dimethylamino)-2-butenamide]",3540 nM,7.5 nM,1790 nM,508 nM,102 nM
"CC(C)Oc1ccc(NC(=O)/C=C/CN(C)C)cc1Nc1ncc(Cl)c(Nc2ccc3ccccc3c2)n1 [CCB145384, (E)-N-((3-((5-chloro-4-((naphthalen-2-yl)amino))pyrimidin-2-yl)amino)-4-isopropoxyphenyl)-4-(dimethylamino)-2-butenamide]",2680 nM,266 nM,671 nM,1970 nM,272 nM
"CC(C)Oc1ccc(NC(=O)/C=C/CN(C)C)cc1Nc1ncc(Br)c(Nc2ccc3ccccc3c2)n1 [CCB145385, (E)-N-((3-((5-bromo-4-((naphthalen-2-yl)amino))pyrimidin-2-yl)amino)-4-isopropoxyphenyl)-4-(dimethylamino)-2-butenamide]",3620 nM,177 nM,7580 nM,5740 nM,316 nM

# These reach a lower IC50 (EGFR^wt). Values come first.
IC50 (EGFR^wt),IC50 (EGFR^T790M/L858R),IC50 [1],IC50 [2],IC50 (IGF-1R),SMILES
1150 nM,56.2 nM,1040 nM,598 nM,200 nM,"Cc1ccc(Nc2ncc(Cl)c(Nc3ccc4ccccc4c3)n2)cc1NC(=O)/C=C/CN(C)C [CCB145346, (E)-N-((5-((5-chloro-4-((naphthalen-2-yl)amino))pyrimidin-2-yl)amino)-2-methylphenyl)-4-(dimethylamino)-2-butenamide]"
1060 nM,6.7 nM,1670 nM,429 nM,195 nM,"COc1cc(F)c(NC(=O)/C=C/CN(C)C)cc1Nc1ncc(Cl)c(Nc2ccc3ccccc3c2)n1 [CCB145380, (E)-N-((5-((5-chloro-4-((naphthalen-2-yl)amino))pyrimidin-2-yl)amino)-2-fluoro-4-methoxyphenyl)-4-(dimethylamino)-2-butenamide]"
613 nM,46.3 nM,775 nM,925 nM,36 nM,"Cc1cc(NC(=O)/C=C/CN(C)C)cc(Nc2ncc(Cl)c(Nc3ccc4ccccc4c3)n2)c1 [CCB145344, (E)-N-((3-((5-chloro-4-((naphthalen-2-yl)amino))pyrimidin-2-yl)amino)-5-methylphenyl)-4-(dimethylamino)-2-butenamide]"
470 nM,42.5 nM,4660 nM,1100 nM,157 nM,"Cc1ccc(Nc2ncc(Br)c(Nc3ccc4ccccc4c3)n2)cc1NC(=O)/C=C/CN(C)C [CCB145348, (E)-N-((5-((5-bromo-4-((naphthalen-2-yl)amino))pyrimidin-2-yl)amino)-2-methylphenyl)-4-(dimethylamino)-2-butenamide]"
